Results on two compounds are retold here after publication PMC3543423, “Structure Prediction and Validation of the ERK8 Kinase Domain” (PLoS ONE, 2013).

This assay has as its target T1, ERK8 (Homo sapiens, UniProt Q8TD08).
T1 construct: gene MAPK15; full-length GST-ERK8 (baculovirus-expressed, GST-ERK8Bac)
T1 sequence (Q8TD08 1-544): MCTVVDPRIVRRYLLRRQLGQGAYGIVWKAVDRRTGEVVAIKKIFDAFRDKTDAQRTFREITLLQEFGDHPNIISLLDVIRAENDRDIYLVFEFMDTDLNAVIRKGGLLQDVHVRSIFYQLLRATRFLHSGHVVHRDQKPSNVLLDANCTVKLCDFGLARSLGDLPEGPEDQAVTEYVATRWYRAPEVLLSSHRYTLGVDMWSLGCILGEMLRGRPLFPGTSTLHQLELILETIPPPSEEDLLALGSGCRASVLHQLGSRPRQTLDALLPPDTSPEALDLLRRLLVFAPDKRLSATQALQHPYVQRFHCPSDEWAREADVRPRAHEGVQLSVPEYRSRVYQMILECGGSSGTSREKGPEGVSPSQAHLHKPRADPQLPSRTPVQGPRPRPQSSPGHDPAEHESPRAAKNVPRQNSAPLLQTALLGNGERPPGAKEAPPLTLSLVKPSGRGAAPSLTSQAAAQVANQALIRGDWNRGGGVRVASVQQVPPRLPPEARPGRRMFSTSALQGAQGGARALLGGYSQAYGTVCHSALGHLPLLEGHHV
Nature of the assay: radiometric [γ-32P]ATP kinase assay with MBP substrate, dose/response; ATP competition; reduced inhibition of F92I mutant. Type of assay: biochemical.

Compound `CCOC(=O)c1c(C(=O)CSc2nc(-c3ccccc3)cc(-c3ccc(OC)cc3)c2C#N)sc2c1CCCC2` [ITT53] yielded an IC50 of 27 µM.

In turn, `COc1ccccc1NC(=O)c1cccc(Nc2nc(-c3ccccc3)c3cc(Br)ccc3n2)c1` [ITT57] had an IC50 of 17 µM.

A word on the IC50: it is the concentration that inhibits the measured activity by half.
